One test relates to 3T3 cells. Briefly: MTT cell proliferation assay. The class given is cell-based. To be noted: Mus musculus, NIH3T3, approximately 64-72 hours. The method, then: (§1) The MTT cell proliferation assay was used to study the cytotoxic properties of the compounds. The assay was performed according to the method described by Roche Molecular Biochemicals, with minor modifications. The assay is based on the cleavage of the tetrazolium salt, MTT, in the presence of an electron-coupling reagent. The water-insoluble formazan salt produced must be solubilized in an additional step. Cells grown in a 96-well tissue culture plate were incubated with the MTT solution for approximately 4 hours. After this incubation period, a water-insoluble formazan dye formed. After solubilization, the formazan dye was quantitated using a scanning multi-well spectrophotometer (ELISA reader). […] The cells were seeded at 5,000-10,000 cells in each well of 96-well plate in 100 μL of fresh culture medium and were allowed to attach overnight. The stock solutions of the compounds were diluted in 100 μL cell culture medium to obtain eight concentrations of each test compound, ranging from 1 nM to 30 μM. […] All optical densities were measured at 490 nm using a Vmax Kinetic Microplate Reader (Molecular Devices). In most cases, the assay was performed in duplicate and the results were presented as a mean percent inhibition to the negative control±SE. The following formula was used to calculate the percent of inhibition: Inhibition (%)=(1−(ODo/OD))×100.
(§2) The compounds were tested against Z138, MM1S and 3T3 cells. The Z138 cell line is a mature B-cell acute lymphoblastic leukemia cell line derived from a patient with chronic lumphocytic leukemia. The MM1S cell line was established from the peripheral blood of a human multiple myeloma patient. 3T3 cells are standard fibroblast cells; they were originally isolated from Swiss mouse embryo tissue.

For a further test, the system named is Z138 cells. Description: MTT cell proliferation assay. It is filed as cell-based. Particulars: Homo sapiens, Z-138, approximately 64-72 hours. The method, then: as §1, §2
For a further test, the system named is MM1S cells. Description: MTT cell proliferation assay. It is filed as cell-based. To be noted: Homo sapiens, MM1.S, approximately 64-72 hours. The protocol: as §1, §2
Background: Tetrazolium assays rely on reduction of a dye to a coloured formazan, in cell work by metabolically active cells.

The target in another test is T1, CRM1 (Homo sapiens, UniProt O14980).
T1 construct: endogenous in cells; host or cells: U2OS cells stably expressing Rev-GFP
T1 sequence (O14980 whole entry): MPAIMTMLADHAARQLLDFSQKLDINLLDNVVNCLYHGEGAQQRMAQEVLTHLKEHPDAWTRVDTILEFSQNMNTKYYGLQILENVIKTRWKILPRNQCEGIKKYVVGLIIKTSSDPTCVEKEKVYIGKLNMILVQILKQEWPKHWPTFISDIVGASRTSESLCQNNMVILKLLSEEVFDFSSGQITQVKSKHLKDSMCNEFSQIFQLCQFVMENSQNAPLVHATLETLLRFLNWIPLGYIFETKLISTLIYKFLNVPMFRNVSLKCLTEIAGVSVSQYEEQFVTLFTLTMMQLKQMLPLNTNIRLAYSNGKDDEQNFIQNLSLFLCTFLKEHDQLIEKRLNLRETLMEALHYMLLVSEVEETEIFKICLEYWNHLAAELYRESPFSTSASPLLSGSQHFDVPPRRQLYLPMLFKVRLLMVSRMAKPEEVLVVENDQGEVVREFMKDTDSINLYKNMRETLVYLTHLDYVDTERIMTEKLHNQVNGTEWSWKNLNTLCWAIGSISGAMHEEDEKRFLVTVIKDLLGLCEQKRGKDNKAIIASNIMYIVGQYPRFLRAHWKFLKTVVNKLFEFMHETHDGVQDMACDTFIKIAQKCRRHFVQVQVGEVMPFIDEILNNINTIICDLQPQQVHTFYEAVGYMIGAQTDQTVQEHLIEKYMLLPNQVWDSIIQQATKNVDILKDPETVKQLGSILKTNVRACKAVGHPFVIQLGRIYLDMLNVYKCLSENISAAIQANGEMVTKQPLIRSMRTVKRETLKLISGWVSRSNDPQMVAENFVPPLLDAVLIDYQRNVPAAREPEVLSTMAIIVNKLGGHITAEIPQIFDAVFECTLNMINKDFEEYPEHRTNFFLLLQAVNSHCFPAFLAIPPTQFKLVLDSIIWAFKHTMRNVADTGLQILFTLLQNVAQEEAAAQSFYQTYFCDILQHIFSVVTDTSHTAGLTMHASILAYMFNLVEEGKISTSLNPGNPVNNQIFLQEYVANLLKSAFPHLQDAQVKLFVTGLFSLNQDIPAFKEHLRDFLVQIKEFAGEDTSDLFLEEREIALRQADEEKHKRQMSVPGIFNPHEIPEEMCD
Description: Inhibition of nuclear export, RevGFP assay in U2OS-RevGFP cells. The class given is cell-based. To be noted: approximately 1 hour incubation. The protocol: The inhibition of CRM1 mediated nuclear export by compounds of the invention was determined in a RevGFP assay. Rev is a protein from human immunodeficiency virus type 1 (HIV-1) and contains a nuclear export signal (NES) in its C-terminal domain and a nuclear localization signal (NLS) in its N-terminal domain. Nuclear export of Rev protein is dependent on the classical NES/CRM1 pathway (Neville et al, 1997, Kau et al, 2003).
In this assay, U2OS-RevGFP cells were seeded onto clear-bottom, black, 384-well plates the day before the experiment. Compounds were serially diluted 1:2 starting from 40 μM in a separate 384-well plate in DMEM, and then transferred onto cells. Cells were incubated with compound for approximately 1 hour before fixation with 3.7% formaldehyde and nuclei staining with Hoechst 33258. The amount of GFP in cell nuclei was measured and compound IC50s were determined (Kau et al, 2003).

The test system of a further test is MDA-MB-468 xenograft. Description: MDA-MB-468 xenograft model. The class given is in vivo, mouse. To be noted: 10 mg/kg PO once daily, CB-17 SCID mice, compared to vehicle. The protocol: MDA-MB-468 (ATCC #HTB-102) breast adenocarcinoma cells were obtained from ATCC. These cells were grown in high glucose DMEM medium supplemented with 10% fetal bovine serum, 1% penicillin and streptomycin, and 2 mM L-Glutamine. Cells were sub-cultured by dilution at a ratio of 1:4. MDA-MB-468 cells were harvested by trypsinization and counted using a hemocytometer. Cells were resuspended in PBS at a concentration of 4×10^8 cells per mL. Cells were placed on ice and mixed with an equal volume of Matrigel (BD Biosciences CB-40234). Twenty-two (22) CB-17 SCID mice were inoculated sub-cutaneously in the left flank with 4×10^7 MDA-MB-468 cells. Treatment was initiated when the tumors reached a mean volume of ˜100 mm^3. […] Animals' weights and condition were recorded daily, and tumors were measured on Mondays, Wednesdays, and Fridays.

Data on ten compounds can be found in patent US11945794B2, “Nuclear transport modulators and uses thereof” (Karyopharm Therapeutics Inc., priority 2013, dated 2024).

A word on the IC50: it is the concentration at which inhibition is half-maximal. For the compound `NC(=O)/C(=C/n1cnc(-c2cc(C(F)(F)F)cc(C(F)(F)F)c2)n1)c1cnc(F)nc1` [Compound 137, (E)-3-(3-(3,5-bis(trifluoromethyl)phenyl)-1H-1,2,4-triazol-1-yl)-2-(2-fluoropyrimidin-5-yl)acrylamide], the half-inhibitory concentration (IC50) in the test with 3T3 cells is greater than 30000 nM; in the test on Z138 cells it was 100 to 5000 nM; in the test with MM1S cells it was less than 100 nM; on CRM1, less than 100 nM.

Take `NC(=O)/C(=C/n1cnc(-c2cc(C(F)(F)F)cc(C(F)(F)F)c2)n1)c1ccncc1F` [Compound 138, (E)-3-(3-(3,5-bis(trifluoromethyl)phenyl)-1H-1,2,4-triazol-1-yl)-2-(3-fluoropyridin-4-yl)acrylamide]: the concentration for half-maximal inhibition (IC50) is 100 to 5000 nM with 3T3 cells, less than 100 nM in the test with Z138 cells, less than 100 nM in the test on MM1S cells and less than 100 nM against CRM1.

Consider `NC(=O)/C(=C/n1cnc(-c2cc(C(F)(F)F)cc(C(F)(F)F)c2)n1)c1ccnc(F)c1` [Compound 140, (E)-3-(3-(3,5-bis(trifluoromethyl)phenyl)-1H-1,2,4-triazol-1-yl)-2-(2-fluoropyridin-4-yl)acrylamide], for which the IC50 is greater than 30000 nM in the test on 3T3 cells, less than 100 nM with Z138 cells, less than 100 nM with MM1S cells and less than 100 nM on CRM1.

As for `NC(=O)/C(=C/n1cnc(-c2cc(C(F)(F)F)cc(C(F)(F)F)c2)n1)c1cncc(Cl)c1` [Compound 141, (E)-3-(3-(3,5-bis(trifluoromethyl)phenyl)-1H-1,2,4-triazol-1-yl)-2-(5-chloropyridin-3-yl)acrylamide], the IC50 was greater than 30000 nM in the test on 3T3 cells, 100 to 5000 nM in the test on Z138 cells, less than 100 nM with MM1S cells and 100 to 5000 nM against CRM1.

As to `NC(=O)/C(=C/n1cnc(-c2cc(C(F)(F)F)cc(C(F)(F)F)c2)n1)c1ccc(Cl)nc1` [Compound 143, (E)-3-(3-(3,5-bis(trifluoromethyl)phenyl)-1H-1,2,4-triazol-1-yl)-2-(6-chloropyridin-3-yl)acrylamide], the IC50 was greater than 30000 nM in the test on 3T3 cells, 100 to 5000 nM in the test with Z138 cells, less than 100 nM in the test on MM1S cells and 100 to 5000 nM on CRM1.

As for `NC(=O)/C(=C/n1cnc(-c2cc(C(F)(F)F)cc(C(F)(F)F)c2)n1)c1ccnc(C(F)(F)F)c1` [Compound 147, (E)-3-(3-(3,5-bis(trifluoromethyl)phenyl)-1H-1,2,4-triazol-1-yl)-2-(2-(trifluoromethyl)pyridin-4-yl)acrylamide], the half-maximal inhibitory concentration (IC50) in the test with 3T3 cells was 100 to 5000 nM; in the test on Z138 cells, 100 to 5000 nM; in the test with MM1S cells, less than 100 nM; at CRM1 it was less than 100 nM.

For the compound `N#Cc1cncc(/C(=C\n2cnc(-c3cc(C(F)(F)F)cc(C(F)(F)F)c3)n2)C(N)=O)c1` [Compound 148, (E)-3-(3-(3,5-bis(trifluoromethyl)phenyl)-1H-1,2,4-triazol-1-yl)-2-(5-cyanopyridin-3-yl)acrylamide], the concentration for half-maximal inhibition (IC50) was greater than 30000 nM in the test on 3T3 cells, less than 100 nM in the test on Z138 cells, less than 100 nM in the test with MM1S cells and less than 100 nM against CRM1.

Consider `NC(=O)/C(=C/n1cnc(-c2cc(C(F)(F)F)cc(C(F)(F)F)c2)n1)c1cnc2ccccc2c1` [Compound 149, (E)-3-(3-(3,5-bis(trifluoromethyl)phenyl)-1H-1,2,4-triazol-1-yl)-2-(quinolin-3-yl)acrylamide], for which the concentration for half-maximal inhibition (IC50) with 3T3 cells was greater than 30000 nM; with Z138 cells it was less than 100 nM; in the test with MM1S cells, less than 100 nM; at CRM1, less than 100 nM. The mean tumor volume result in the test with MDA-MB-468 xenograft is reported as “mean tumor volume was reduced”.

Regarding `NC(=O)/C(=C\n1cnc(-c2cc(C(F)(F)F)cc(C(F)(F)F)c2)n1)c1ccnc(F)c1` [Compound 155, (Z)-3-(3-(3,5-bis(trifluoromethyl)phenyl)-1H-1,2,4-triazol-1-yl)-2-(2-fluoropyridin-4-yl)acrylamide], the concentration for half-maximal inhibition (IC50) with 3T3 cells is 100 to 5000 nM; in the test with Z138 cells, less than 100 nM; in the test with MM1S cells, less than 100 nM; on CRM1, less than 100 nM.

Consider `NC(=O)/C(=C\n1cnc(-c2cc(C(F)(F)F)cc(C(F)(F)F)c2)n1)c1ccc(Cl)nc1` [Compound 156, (Z)-3-(3-(3,5-bis(trifluoromethyl)phenyl)-1H-1,2,4-triazol-1-yl)-2-(6-chloropyridin-3-yl)acrylamide], for which the IC50 in the test with 3T3 cells is greater than 30000 nM; in the test with Z138 cells it was 100 to 5000 nM; in the test on MM1S cells, 100 to 5000 nM; against CRM1 it was 100 to 5000 nM.
